Experimental data published in PMC3906007, “Discovery of a Small Molecule Agonist of Phosphatidylinositol 3-Kinase p110α That Reactivates Latent HIV-1” (PLoS ONE, 2014).
Read-outs that look alike come from different tables or passages of the source.

Legend:
[1] = tested on: latent HIV-1 in CD8+-depleted MNC; type: cell-based; details: for Copies HIV RNA/mL: 7 days
From the text: Healthy HIV-1 uninfected blood donors and HIV-1-infected donors on suppressive cART with plasma HIV-1 RNA less than 50 copies/mL for >2 year provided written informed consent and underwent a large volume phlebotomy (100–200 mLs). The protocol for blood donation was approved by the Institutional Review Board of the University of Pittsburgh (IRB #PRO10070203).
CD8+T-cells were depleted from whole blood using RosetteSep Human CD8 Depletion Cocktail (StemCell Technologies, Vancouver, BC) according to manufacturer's instructions. 2×10^6 CD4^+ MNC cells were seeded in triplicate per treatment in 48-well plates and allowed to rest overnight. […] Activation controls were treated with CD3/CD28 Dynabeads (Life Technologies, Grand Island, NY). After 7 days of incubation, supernatants from triplicate wells were pooled, centrifuged (500 g×5 min), and stored at −80°C. HIV-1 RNA levels in supernatants were determined using the COBAS® AmpliPrep/COBAS® TaqMan® HIV-1 Test, v2.0 (Roche, Indianapolis, IN).

[2] = tested on: latent HIV-1 in U1 cell line; assay: Latent HIV-1 reactivation in U1 cells (quantitative PCR of early and late viral RNA transcripts); type: cell-based
Procedure: (§1) Three different cell lines of HIV-1 latency were used in this study. These included J89GFP, U1 and ACH-2 cells. The J89GFP cells were a kind gift from Dr. David Levy. The ACH-2 and U1 cells were obtained through the AIDS Research and Reference Reagent Program, Division of AIDS, NIAID, NIH: Dr. Thomas Folks contributor [19]–[21]. Reactivation of latent HIV-1 in the J89GFP cells was measured by quantifying the percentage of EGFP positive cells using a BD FACScan flow cytometer with BD FACSDiva software (BD Biosciences, CA), as described previously. Reactivation of latent HIV-1 in the ACH-2 and U 1 cells was assessed by quantitative analysis of initiated and elongated HIV-1 transcripts, as described previously. All 3 cell lines were maintained in RMPI 1640 medium supplemented with 10% FBS, 0.3 mg/mL L-glutamine, 100 U/mL penicillin, and 100 µg/mL streptomycin at 37°C in humidified air with 5% CO2.
Figure 2 Latent HIV-1 reactivation activity of 57704, alone and in combination with other inducing agents, in the U1 and ACH2 cell line models of virus latency. HIV-1 expression was assessed by quantitative PCR analysis of early and late viral RNA transcripts. Where appropriate, TNFα was used as an activation control. (A) Latent HIV-1 reactivation of activity 57704 in the J89GFP cell line. […] (B) Latent HIV-1 reactivation activity of 57704 in the ACH2 cell line. (C) Latent HIV-1 reactivation of activity 57704 in the U1 cell line. (D) Graph of activation of latent HIV-1 early and late gene transcript expression in the ACH2 and U1 cell lines. EC50 values were determined in Sigma Plot by nonlinear regression, as described previously. (E) Latent HIV-1 reactivation of 5 µM 57704 in combination with 1 µM prostratin in the U1 cell line. […]. (G) Latent HIV-1 reactivation of 5 µM 57704 in combination with 2.5 µM DSF in the U1 cell line. (H) Latent HIV-1 reactivation of 5 µM 57704 in combination with 20 µM BIX-01294 in the U1 cell line. Data represent the mean ± standard deviation from 3 replicate experiments.

HDAC3 = biological target: T1, HDAC3 (Homo sapiens, UniProt O15379); assay: Fluorogenic HDAC activity assay, HDAC3 complexed with NCOR2; type: biochemical
T1 construct: purchased BPS Bioscience (San Diego, CA)
Procedure: (§2) The lysine deacetylase activity of HDACs 1, 2, 3, and 8 was assessed using the Fluorogenic HDAC Assay (BPS Bioscience, San Diego, CA) according to the manufacturer's instructions. […] All assays were carried out under steady-state conditions and the assay read-out was optimized for linearity both as a function of time and enzyme concentration. The formation of the fluorescent product was measured using a SpectraMax M2 Plate Reader (Molecular Devices, CA). The excitation and emission wavelengths were 360 nm and 450 nm, respectively.

[3] = tested on: latent HIV-1 in ACH2 cell line; assay: Latent HIV-1 reactivation in ACH2 cells (quantitative PCR of early and late viral RNA transcripts); type: cell-based
Procedure: as §1
Figure 2 Latent HIV-1 reactivation activity of 57704, alone and in combination with other inducing agents, in the U1 and ACH2 cell line models of virus latency. HIV-1 expression was assessed by quantitative PCR analysis of early and late viral RNA transcripts. Where appropriate, TNFα was used as an activation control. (A) Latent HIV-1 reactivation of activity 57704 in the J89GFP cell line. […] EC50 values were determined in Sigma Plot by nonlinear regression, as described previously. […]

PI3K p110β RNA = type: cell-based; details: J89GFP cells; 5 µM
Akt phosphorylation = assay: Western blot analysis of phosphorylated Akt in J89GFP cells; type: cell-based; details: 5 µM 57704
Procedure: To gain insight into the mechanism by which 57704 reactivates latent HIV-1, we evaluated its activity in combination with inhibitors of different signaling pathways or kinases in J89GFP cells (Fig. 4A, B). […] To determine whether 57704 directly activated the PI3K/Akt signaling pathway, we next assessed the levels of Akt phosphorylation in the J89GFP cells after exposure to 5 µM 57704.

HDAC1 = biological target: T2, HDAC1 (Homo sapiens, UniProt Q13547); assay: Fluorogenic HDAC activity assay, HDAC1; type: biochemical
T2 construct: purchased BPS Bioscience (San Diego, CA)
Procedure: The lysine deacetylase activity of HDACs 1, 2, 3, and 8 was assessed using the Fluorogenic HDAC Assay (BPS Bioscience, San Diego, CA) according to the manufacturer's instructions. The HDAC3 used in this assay was complexed with human nuclear receptor co-repressor 2 (NCOR2; amino acids 395–489), which is an activating co-factor of this HDAC isoform. All assays were carried out under steady-state conditions and the assay read-out was optimized for linearity both as a function of time and enzyme concentration. The formation of the fluorescent product was measured using a SpectraMax M2 Plate Reader (Molecular Devices, CA). The excitation and emission wavelengths were 360 nm and 450 nm, respectively. […]

PI3K p110γ RNA = assay: PI3K isoform RNA transcript levels in J89GFP cells, p110γ; type: cell-based; details: 5 µM
HDAC2 = biological target: T3, HDAC2 (Homo sapiens, UniProt Q92769); assay: biochemical; details: recombinant purified enzyme; read-out: 57704 IC50, HDAC2
T3 construct: purchased BPS Bioscience (San Diego, CA)
Procedure: as §2

[4] = Cytotoxicity (MTT or CellTiter 96), HeLa; type: cell-based; details: human, HeLa cells; 24 hour incubation; mean ± SD, 3 replicates
Procedure: Following a 24 hour incubation period, cell viability was measured using either the MTT (Roche Applied Science, Indianapolis, IN) or CellTiter 96 proliferation (Promega, WI) assay.

T2 sequence (Q13547 whole entry): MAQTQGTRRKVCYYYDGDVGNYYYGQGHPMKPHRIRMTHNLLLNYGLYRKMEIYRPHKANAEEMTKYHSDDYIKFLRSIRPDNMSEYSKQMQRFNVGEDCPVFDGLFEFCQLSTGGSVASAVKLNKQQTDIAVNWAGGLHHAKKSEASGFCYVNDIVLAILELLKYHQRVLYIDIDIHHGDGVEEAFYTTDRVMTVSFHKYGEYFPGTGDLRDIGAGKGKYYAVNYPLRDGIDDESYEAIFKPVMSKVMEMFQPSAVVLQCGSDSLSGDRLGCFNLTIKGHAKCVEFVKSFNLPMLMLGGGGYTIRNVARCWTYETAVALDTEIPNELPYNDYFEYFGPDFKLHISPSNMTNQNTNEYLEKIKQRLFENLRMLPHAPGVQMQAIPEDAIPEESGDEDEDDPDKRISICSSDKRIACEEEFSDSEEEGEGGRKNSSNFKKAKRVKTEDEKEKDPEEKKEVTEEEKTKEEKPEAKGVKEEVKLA
T1 sequence (O15379 whole entry): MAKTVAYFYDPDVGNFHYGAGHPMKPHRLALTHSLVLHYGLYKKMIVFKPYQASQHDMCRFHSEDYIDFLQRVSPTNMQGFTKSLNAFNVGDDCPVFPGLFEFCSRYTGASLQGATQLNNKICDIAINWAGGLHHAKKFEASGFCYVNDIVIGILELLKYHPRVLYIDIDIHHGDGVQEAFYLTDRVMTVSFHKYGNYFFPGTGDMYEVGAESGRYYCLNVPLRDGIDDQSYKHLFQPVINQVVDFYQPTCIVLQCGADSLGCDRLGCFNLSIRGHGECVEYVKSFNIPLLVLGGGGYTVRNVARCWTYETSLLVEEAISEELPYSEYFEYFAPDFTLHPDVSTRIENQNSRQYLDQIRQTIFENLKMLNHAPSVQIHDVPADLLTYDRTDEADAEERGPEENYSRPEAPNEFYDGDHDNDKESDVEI
T1 sequence (Q9Y618 395-489 partner limits assumed): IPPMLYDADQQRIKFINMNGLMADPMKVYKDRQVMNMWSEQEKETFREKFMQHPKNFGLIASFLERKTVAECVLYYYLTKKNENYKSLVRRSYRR
T3 sequence (Q92769 whole entry): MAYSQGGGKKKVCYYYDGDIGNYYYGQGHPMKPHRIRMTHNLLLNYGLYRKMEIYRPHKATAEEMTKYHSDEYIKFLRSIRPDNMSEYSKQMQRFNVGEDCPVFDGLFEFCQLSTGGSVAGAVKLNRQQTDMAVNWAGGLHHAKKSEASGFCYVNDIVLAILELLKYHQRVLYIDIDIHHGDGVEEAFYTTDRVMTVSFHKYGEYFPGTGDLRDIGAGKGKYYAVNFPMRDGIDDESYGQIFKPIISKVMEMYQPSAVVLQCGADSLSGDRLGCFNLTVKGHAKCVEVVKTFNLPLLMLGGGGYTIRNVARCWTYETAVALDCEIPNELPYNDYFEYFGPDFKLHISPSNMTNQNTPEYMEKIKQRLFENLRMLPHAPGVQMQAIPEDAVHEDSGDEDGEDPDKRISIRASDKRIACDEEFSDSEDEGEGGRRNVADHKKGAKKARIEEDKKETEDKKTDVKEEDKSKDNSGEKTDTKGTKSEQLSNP

COc1cc2c(cc1OC)-c1c(OC)c(OC)cc3ccnc(c13)C2=O [Compound 57704, 1,2,9,10-tetramethoxy-7H-dibenzo[de,g]quinolin-7-one]
Increase of HIV-1 RNA in culture supernatants compared to the control ([1]; 5 µM 57704, mean of 4 donors): ~4 fold
CD8+-depleted blood mononuclear cell preparations (donors) with increased HIV-1 expression ([1]; 4 donors on suppressive cART tested): 3 of 4
Copies HIV RNA/mL ([1]; donor 1, 1 µM 57704, control 96): 0 copies/mL
Copies HIV RNA/mL ([1]; donor 1, 5 µM 57704, control 96): 389 copies/mL
Copies HIV RNA/mL ([1]; donor 2, 1 µM 57704, control 0): 79 copies/mL
Copies HIV RNA/mL ([1]; donor 2, 5 µM 57704, control 0): 35 copies/mL
Copies HIV RNA/mL ([1]; donor 3, 1 µM 57704, control 0): 10 copies/mL
Copies HIV RNA/mL ([1]; donor 3, 5 µM 57704, control 0): 0 copies/mL
Copies HIV RNA/mL ([1]; donor 4, 1 µM 57704, control 20): 20 copies/mL
EC50 ([2]; Human immunodeficiency virus 1, read-out: EC50, activation of early HIV-1 gene transcript expression): 8.2 µM
EC50 ([2]; Human immunodeficiency virus 1, read-out: EC50, activation of late HIV-1 gene transcript expression): 4.9 µM
Latent HIV-1 reactivation activity in combination with prostratin ([2]; U1, 5 µM 57704 + 1 µM prostratin): increased in an additive manner
Latent HIV-1 reactivation activity in combination with DSF ([2]; U1, 5 µM 57704 + 2.5 µM DSF): increased in an additive manner
Latent HIV-1 reactivation activity in combination with SAHA ([2]; U1, 5 µM 57704 + 5 µM SAHA): increased in an additive manner
Latent HIV-1 reactivation activity in combination with BIX-01294 ([2]; U1, 5 µM 57704 + 20 µM BIX-01294): increased in an additive manner
IC50 (HDAC3): > 50 µM
EC50 ([3]; Human immunodeficiency virus 1, ACH-2, read-out: EC50, activation of early HIV-1 gene transcript expression): 9 µM
EC50 ([3]; Human immunodeficiency virus 1, ACH-2, read-out: EC50, activation of late HIV-1 gene transcript expression): 6.2 µM
Decrease of PI3K p110β RNA levels (PI3K p110β RNA): ~2 fold
Akt phosphorylation (Western blot) (Akt phosphorylation): increased Akt phosphorylation
IC50 (HDAC1): > 50 µM
Effect on PI3K p110γ RNA transcript levels (PI3K p110γ RNA): no effect
IC50 (HDAC2): > 50 µM
CC50 at 24 h [4]: 293 ± 56.4 µM
